In brackets after ≈: the same amount, converted by molar mass.

The term kinetic solubility denotes solubility judged after dilution from a stock solution rather than from solid.

For this series the following is noted: buffer; pH 7.4; 200.0 µM.
In turn, `COc1ccc(N2CCC(CNC(=O)Nc3cccc(OC)c3)C2)cc1` (configuration not stated) registered a solubility (kinetic) of 34.5 µg/mL (≈ 97.1 µM).

`COc1ccc(NC(=O)COC(=O)c2ccc3c(c2)OCO3)c(OC)c1` gave a solubility (kinetic) of 1.9 µg/mL (≈ 5.29 µM).

For the compound `O=C(Nc1cccc(Cl)c1)OC1CCCCc2cccnc21` (configuration not stated), the solubility (kinetic) is 9.3 µg/mL (≈ 29.4 µM).

Take `CCOC(=O)CC1C(=O)NCCN1C1CCCC1` (configuration not stated): the kinetic solubility was more than 38.1 µg/mL.

For `O=C(CN1C(=O)NC2(CCCCCC2)C1=O)Nc1ccc([N+](=O)[O-])cc1`, the kinetic solubility is 13.3 µg/mL (≈ 36.9 µM).

Consider `Cc1cc(=O)cc(C)n1-c1ccccc1N`, for which the solubility (kinetic) was determined as 31.1 µg/mL (≈ 145 µM).

Consider `O=C(NCCNC(=O)c1cnccn1)c1cccc(Cl)c1`, for which the kinetic solubility was determined as 42.7 µg/mL (≈ 140 µM).

As for `O=C(c1noc2c1CCCC2)N1CCc2ccccc2C1`, the solubility (kinetic) amounted to 40.8 µg/mL (≈ 145 µM). This solubility kinetic and that of the compound before are within 1.5-fold of each other.

`O=C(CCl)NCc1cc(-c2ccc(Cl)cc2)no1` showed a solubility (kinetic) of 13.2 µg/mL (≈ 46.3 µM).

In turn, `Cc1ccc(N/C=C2\CCCCC2=O)nc1` came in with a solubility (kinetic) of 31.6 µg/mL (≈ 146 µM).

Consider `Cc1ccc(NC(=O)C2Oc3ccccc3OC2C)cc1` (configuration not stated), for which the kinetic solubility came to 28 µg/mL (≈ 98.8 µM). The solubility kinetic values of the last two compounds are within 1.5-fold of each other.

The compound `COc1ccccc1NC(=O)CCN1C(=O)C2CC=CCC2C1=O` (configuration not stated) registered a kinetic solubility of more than 49.3 µg/mL.

For `COc1cccc(C(=O)Nc2cccnc2)c1OC`, the solubility (kinetic) is more than 38.7 µg/mL.

As to `Cn1c(=O)n(Cc2ccccc2Cl)c(=O)c2c1[nH]c(=S)n2C`, the solubility (kinetic) is more than 50.5 µg/mL.

The compound `Cc1cnc(NC(=O)c2ccc3c(c2)OCCO3)s1` came in with a kinetic solubility of 4.4 µg/mL (≈ 15.9 µM).

The compound `COC(=O)[C@H](Cc1ccccc1)NC(=O)N1CCCCC1` returned a kinetic solubility of more than 43.6 µg/mL.

On to `COc1ccc(NC(=O)c2ccc(S(=O)(=O)N3CCCCC3)cc2)cc1OC`, for which the solubility (kinetic) was 5.5 µg/mL (≈ 13.6 µM).

The compound `CCN(CC(=O)NC1CC1)S(=O)(=O)c1ccc(C)cc1` displayed a solubility (kinetic) of more than 44.5 µg/mL.

For the compound `CN(Cc1ccccc1)C(=O)COc1ccc(Br)cc1Cl`, the kinetic solubility was determined as 12.6 µg/mL (≈ 34.2 µM).

For `O=C(Nc1ccc(Br)cn1)c1cccc2ccccc12`, the solubility (kinetic) is 0.5 µg/mL (≈ 1.53 µM).

`COc1ccccc1NC(=O)COC(=O)CNC(=O)C1CCCCC1`: the solubility (kinetic) was more than 52.3 µg/mL.

`CSc1ccc(NC(=O)NCc2ccccc2)cc1` yielded a kinetic solubility of 1.4 µg/mL (≈ 5.14 µM).

For the compound `C=CCn1c(=O)c2ccccc2n2c(SCC(=O)NC(C)C)nnc12`, the kinetic solubility was more than 53.6 µg/mL.

Compound `Cc1csc(C)[n+]1CC(=O)c1ccccc1.[Br-]` yielded a solubility (kinetic) of more than 46.8 µg/mL.

As to `O=C(Cc1cccs1)NCCc1ccc(F)cc1`, the solubility (kinetic) is more than 39.5 µg/mL.

`O=C1CN(C(=O)CSc2nncs2)c2ccccc2N1` gave a solubility (kinetic) of more than 46 µg/mL.

Compound `CN(C)C(=O)N1CCNCC1.Cl` registered a kinetic solubility of more than 29.1 µg/mL.

Compound `CCc1nc(N2CCN(C(C)=O)CC2)c(C#N)c2c1COC(C)(C)C2` returned a solubility (kinetic) of more than 51.4 µg/mL.

`CN(C(=O)COC(=O)c1ccc(Br)c(S(=O)(=O)N2CCOCC2)c1)C1CCCCC1` showed a solubility (kinetic) of more than 75.5 µg/mL.

As for `Cc1c(C(=O)N2CCC[C@H]2C(N)=O)oc2c(F)cccc12`, the kinetic solubility was found to be 38.1 µg/mL (≈ 131 µM).

For `N#CCN1CCN(CC(=O)c2ccc(Br)cc2)CC1`, the solubility (kinetic) was found to be 47.3 µg/mL (≈ 147 µM).

As for `CCC(C)NC(=O)[C@@H]1CSC2c3ccccc3C(=O)N21` (some centres not stated), the solubility (kinetic) was more than 43.6 µg/mL.

Consider `COc1cc(NC(=O)CCc2c(C)noc2C)c(Cl)cc1C(=O)O`, for which the solubility (kinetic) is more than 52.9 µg/mL.

Turning to `Cn1ncc2c(=O)[nH]cnc21`, the solubility (kinetic) was more than 22.5 µg/mL.

Compound `COc1cc(NC(=O)c2cc(C)no2)c(OC)cc1Cl` displayed a solubility (kinetic) of 1.8 µg/mL (≈ 6.07 µM).

As to `CC(C)(C)NC(=O)CN(C(=O)C1CSC(=O)C1)c1ccccc1F` (configuration not stated), the kinetic solubility amounted to 33.3 µg/mL (≈ 94.5 µM).

`COc1ccc(Cl)cc1NC(=O)NCc1ccccn1` returned a kinetic solubility of 41.6 µg/mL (≈ 143 µM).

Compound `CCCN1C2CCCC1CC(NC(=O)c1ccccc1OC)C2` (configuration not stated) yielded a solubility (kinetic) of more than 47.5 µg/mL.

In turn, `COc1cccc(OC)c1C(=O)N1CCNCC1.O=C(O)C(=O)O` had a kinetic solubility of 49.7 µg/mL.

Compound `O=C(COC(=O)c1cc(S(=O)(=O)N2CCOCC2)ccc1O)Nc1ccc2c(c1)OCO2` gave a kinetic solubility of more than 69.7 µg/mL.

For the compound `O=C(Oc1cccc(C(=S)N2CCCCC2)c1)c1ccccc1`, the kinetic solubility was found to be 6 µg/mL (≈ 18.4 µM).

On to `CC(C)(C)NS(=O)(=O)c1ccc(NC(=O)CS(=O)(=O)Cc2ccccc2)cc1`, for which the kinetic solubility is more than 63.7 µg/mL.

The compound `CC(C)C1Cc2nc(Cl)c(C#N)cc2CO1` (configuration not stated) displayed a solubility (kinetic) of 24.8 µg/mL (≈ 105 µM).

`COCCCNc1nc2nonc2nc1N(C)CC1CCCN1C` (configuration not stated) displayed a solubility (kinetic) of 43.5 µg/mL (≈ 130 µM).

With `COc1cc2nc(CCc3ccccc3)oc(=O)c2cc1OC`, the kinetic solubility is more than 46.7 µg/mL.

`Cc1cccc(C(=O)N/C(=C\c2ccco2)C(=O)N2CCCC2)c1` returned a solubility (kinetic) of more than 48.7 µg/mL.

The compound `COC(=O)c1cccc(NC(=O)CSc2nnc(C)n2C)c1` came in with a solubility (kinetic) of more than 48.1 µg/mL.

In the case of `O=C1NC(=O)C(c2ccc(F)cc2)N1` (configuration not stated), the kinetic solubility is more than 29.1 µg/mL.

Regarding `NC(=O)C1(C(N)=O)OC1c1ccc(Cl)cc1Cl` (configuration not stated), the solubility (kinetic) was more than 41.3 µg/mL.

For the compound `CCC(C)c1ccc(NC(=O)c2ccco2)cc1` (configuration not stated), the kinetic solubility was determined as 24.6 µg/mL (≈ 101 µM).

In the case of `c1ccc(-c2nccnc2-c2ccccc2)cc1`, the kinetic solubility worked out at 21.5 µg/mL (≈ 92.6 µM).

Compound `CC(NS(=O)(=O)c1ccc2ccccc2c1)c1ccccn1.Cl` (configuration not stated) had a kinetic solubility of more than 52.3 µg/mL.

The record behind these values is PubChem BioAssay AID1996.
